The NIST ThermoML archive (doi:10.1021/je9004382)
± gives the expanded uncertainty stated by the source.

Assays:
[1] = Crystal; DTA
[2] = Molar enthalpy of transition or fusion; settings: Crystal; Adiabatic calorimetry

Row | Normal melting temperature [1] [°C] | Molar enthalpy of transition or fusion [2] [kcal/mol] | Compound
1 | 88.64 ± 1.2 | 7.14 ± 0.669 | COC(=O)/C=C/c1cc(OC)c(O)c(OC)c1 [3,5-dimethoxy-4-hydroxy cinnamic acid methyl ester]
2 | 137.56 ± 1.1 | 7.22 ± 0.43 | COC(=O)C=Cc1ccc(O)cc1 [2-propenoic acid, 3-(4-hydroxyphenyl)-, methyl ester]
3 | 62.56 ± 0.95 | 6.17 ± 0.43 | COC(=O)C=Cc1ccc(O)c(OC)c1 [methyl 3-(4-hydroxy-3-methoxyphenyl)-2-propenoate]
